Reference: patent US11395486B2, “Antibacterial and antifungal composition” (ADEKA CORPORATION, priority 2017, dated 2022)

Assay: Evaluation of solution appearance
Assay type: physicochemical
Conditions: solution adjusted to the five-kind MIC, 4 mL tube, allowed to stand still, visually observed
Protocol: […] of each of the test microbial liquids was dispensed onto a microplate, and further, […] of each of antibacterial and antifungal solutions, in which the antibacterial and antifungal compositions prepared in Examples 1 and 2 and Comparative Examples 1 to 11 were adjusted to various concentrations with a culture medium, was added to the test microbial liquid, followed by stirring, to obtain a mixed solution. In this case, the pH of each of the antibacterial and antifungal solutions was from 6.89 to 7.24. Next, in each of the mixed solutions, culture was performed as follows. The bacterium mixed solution was cultured in a constant-temperature reservoir at 37° C. for 24 hours. The yeast mixed solution was cultured in the constant-temperature reservoir at 25° C. for 3 days. The mold mixed solution was cultured in the constant-temperature reservoir at 25° C. for 1 week. […] In addition, the appearance of the antibacterial and antifungal solution was evaluated as follows. […] The appearance of the solution was visually observed and evaluated in accordance with the following criteria. […]

Structure (SMILES)	Evaluation of solution appearance
OCc1ccccc1 [Comparative Example 6, benzyl alcohol]	◯
O=C([O-])c1ccccc1.[Na+] [compound 7, sodium benzoate]	◯
